Test results taken from US10610522B2, “Methods for retreating irritable bowel syndrome (IBS)” (Salix Pharmaceuticals, Inc., priority 2014, dated 2020).

What was measured:
[1] = tested on: C. difficile infection (CDI); assay: Double-blind non-inferiority trial rifaximin 400 mg TID vs vancomycin 125 mg QID, 10 days, C. difficile infection; type: in vivo, human
Procedure: Criteria for entry into the trial were: • Age >=18 years old; • Had acute diarrhea at screening defined as >=3 unformed stools in the last 24 hours and at least one sign of enteric infection (fever, nausea, lose of appetite, vomiting, severe abdominal pain/discomfort); and • a positive C. diff stool toxin assay Endpoint:
The primary efficacy endpoint of the study was defined as the proportion of subjects achieving clinical success. Specifically, clinical success was defined as the absence of severe abdominal pain at Test of Cure (TOC), absence of fever (<38° C.) at TOC, and <3 unformed stools for two consecutive days at TOC.
Clinical success was defined as the: Absence of severe abdominal pain at TOC, absence of fever (<38° C.) at TOC, and <3 unformed stools for two consecutive days at TOC. Test of cure defined as Day 14+/−1 day.
Recurrence was defined to be a diarrhea and a positive C. diff stool toxin assay that occurred after initial clinical success.
Global cure of diarrhea was defined as subjects who were cured of diarrhea at TOC without recurrence at follow up.
Subjects who completed the study without achieving clinical success were censored at Day 14

cytochrome P450 1A2 = target: T1, cytochrome P450 1A2 (Homo sapiens, UniProt P05177); assay: In vitro cytochrome P450 inhibition; type: biochemical; settings: 2 to 200 ng/mL
T1 sequence (P05177 1-516): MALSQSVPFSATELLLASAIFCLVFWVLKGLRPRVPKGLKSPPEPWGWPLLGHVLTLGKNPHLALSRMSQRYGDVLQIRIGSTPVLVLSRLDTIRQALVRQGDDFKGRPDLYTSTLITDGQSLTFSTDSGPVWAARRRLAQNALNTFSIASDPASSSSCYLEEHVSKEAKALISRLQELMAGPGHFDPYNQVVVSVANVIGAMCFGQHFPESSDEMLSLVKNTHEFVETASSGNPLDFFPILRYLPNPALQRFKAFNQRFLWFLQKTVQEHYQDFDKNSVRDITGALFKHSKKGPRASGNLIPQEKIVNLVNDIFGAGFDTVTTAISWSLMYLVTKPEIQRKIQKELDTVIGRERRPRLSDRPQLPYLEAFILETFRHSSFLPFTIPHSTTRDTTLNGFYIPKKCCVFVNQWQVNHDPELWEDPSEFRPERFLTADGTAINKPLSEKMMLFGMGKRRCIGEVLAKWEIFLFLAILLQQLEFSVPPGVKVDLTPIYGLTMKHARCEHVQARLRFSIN

CYP3A4 = CYP3A4 (Homo sapiens, UniProt P08684); assay: In vitro cytochrome P450 inhibition; type: biochemical; settings: 2 to 200 ng/mL
IBS-D = assay: Adverse reactions in three phase 3 placebo-controlled IBS-D studies, rifaximin 550 mg TID; type: in vivo, human
Source text: In two studies, 624 patients received only one 14-day treatment.
(These include adverse reactions that may be attributable to the underlying disease.)
The following includes adverse reactions regardless of causal relationship to drug exposure. Gastrointestinal Disorders: Abdominal distension, abdominal tenderness, constipation, diarrhea, dyspepsia, flatulence, vomiting

[2] = Rifaximin N = 117, Vancomycin N = 115
[3] = Rifaximin vs Vancomycin, at TOC
[4] = Rifaximin vs Vancomycin, treatment period
[5] = adjusting for concomitant medication usage, Rifaximin N = 109, Vancomycin N = 112
[6] = adjusting for concomitant medication usage, Rifaximin N = 117, Vancomycin N = 115
[7] = adjusting for concomitant medication usage, Rifaximin vs Vancomycin
[8] = after initial clinical success, Rifaximin N = 67, Vancomycin N = 73
[9] = all subjects, Rifaximin N = 117, Vancomycin N = 115
[10] = at TOC, Rifaximin N = 108, Vancomycin N = 111
[11] = at TOC, Rifaximin N = 117, Vancomycin N = 115
[12] = cured at TOC without recurrence at follow up, Rifaximin N = 117, Vancomycin N = 115
[13] = subgroup Age <65, at TOC, Rifaximin N = 69, Vancomycin N = 62
[14] = subgroup Age >=65, at TOC, Rifaximin N = 39, Vancomycin N = 49
[15] = subgroup Female, at TOC, Rifaximin N = 68, Vancomycin N = 64
[16] = subgroup Male, at TOC, Rifaximin N = 40, Vancomycin N = 47
[17] = 1650 mg/day, N = 952, three phase 3 placebo-controlled studies

CYP3A4, sequence (P08684 whole entry): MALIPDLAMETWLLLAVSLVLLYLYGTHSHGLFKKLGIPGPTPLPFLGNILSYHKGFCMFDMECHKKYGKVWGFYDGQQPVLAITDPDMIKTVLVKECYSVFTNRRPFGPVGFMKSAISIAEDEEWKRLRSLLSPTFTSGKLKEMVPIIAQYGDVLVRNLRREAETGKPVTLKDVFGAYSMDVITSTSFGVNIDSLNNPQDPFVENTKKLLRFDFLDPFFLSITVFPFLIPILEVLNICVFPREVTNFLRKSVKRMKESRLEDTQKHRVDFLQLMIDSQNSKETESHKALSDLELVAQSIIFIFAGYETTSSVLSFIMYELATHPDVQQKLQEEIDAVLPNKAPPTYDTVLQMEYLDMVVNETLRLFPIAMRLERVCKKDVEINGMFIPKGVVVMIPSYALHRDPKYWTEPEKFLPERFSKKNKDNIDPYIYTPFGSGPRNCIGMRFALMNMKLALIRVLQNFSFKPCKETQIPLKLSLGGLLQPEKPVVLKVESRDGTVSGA

CO[C@H]1/C=C/O[C@@]2(C)Oc3c(C)c(O)c4c(O)c(c5c(nc6cc(C)ccn65)c4c3C2=O)NC(=O)/C(C)=C\C=C\[C@H](C)[C@H](O)[C@@H](C)[C@@H](O)[C@@H](C)[C@H](OC(C)=O)[C@@H]1C [Rifaximin, (2S,16Z,18E,20S,21S,22R,23R,24R,25S,26S,27S,28E)-5,6,21,23,25 Pentahydroxy-27-methoxy-2,4,11,16,20,22,24,26-octamethyl-2,7-(epoxypentadeca-(1,11,13)trienimino) benzofuro (4,5-e) pyrido(1,2-a) benzimidazole-1,15(2H)-dione,25-acetate]
Continuing Illness No: % of subjects [1, 2]: 77%
Continuing Illness No: number of subjects [1, 2]: 90
Continuing Illness Yes: % of subjects [1, 2]: 23%
Continuing Illness Yes: number of subjects [1, 2]: 27
Global Cure of Diarrhea No: % of subjects [1, 2]: 29%
Global Cure of Diarrhea No: number of subjects [1, 2]: 34
Recurrence Rate per Person-Year Exposure [1, 2]: 0.613
Continuing Illness: Treatment Difference ([1]; Rifaximin vs Vancomycin): −9.2%
Global Cure of Diarrhea: Treatment Difference ([1]; Rifaximin vs Vancomycin): −3.0%
Recurrence of CDI: Treatment Difference ([1]; Rifaximin vs Vancomycin, after initial clinical success): 4.7%
Clinical Success: Treatment Difference [1, 3]: −6.2%
Diarrhea: Treatment Difference [1, 3]: −1.5%
Fever: Treatment Difference [1, 3]: −7.5%
Severe Abdominal Pain/Discomfort: Treatment Difference [1, 3]: −11.5%
Adjusted mean number of unformed stools-ANOVA: Treatment Difference (95% CI) [1, 4]: 0.46 (−0.08, 1.00)
Overall treatment difference in number of unformed stools-Mixed Model: Treatment Difference (95% CI) [1, 4]: 0.32 (−0.08, 0.72)
Diarrhea No: % of subjects [1, 5]: 65%
Diarrhea No: number of subjects [1, 5]: 71
Diarrhea Yes: % of subjects [1, 5]: 35%
Diarrhea Yes: number of subjects [1, 5]: 38
Clinical Success No: % of subjects [1, 6]: 50%
Clinical Success No: number of subjects [1, 6]: 59
Clinical Success Yes: % of subjects [1, 6]: 50%
Clinical Success Yes: number of subjects [1, 6]: 58
Clinical Success: Treatment Difference [1, 7]: −10.4%
Diarrhea: Treatment Difference [1, 7]: −8.1%
No Recurrence of CDI: % of subjects [1, 8]: 91%
No Recurrence of CDI: number of subjects [1, 8]: 61
Recurrence of CDI: % of subjects [1, 8]: 9%
Recurrence of CDI: number of subjects [1, 8]: 6
Recurrence No: % of subjects [1, 9]: 95%
Recurrence No: number of subjects [1, 9]: 111
Recurrence Yes: % of subjects [1, 9]: 5%
Recurrence Yes: number of subjects [1, 9]: 6
Diarrhea No: % of subjects [1, 10]: 80%
Diarrhea No: number of subjects [1, 10]: 86
Diarrhea Yes: % of subjects [1, 10]: 20%
Diarrhea Yes: number of subjects [1, 10]: 22
Fever No: % of subjects [1, 10]: 91%
Fever No: number of subjects [1, 10]: 98
Fever Yes: % of subjects [1, 10]: 9%
Fever Yes: number of subjects [1, 10]: 10
Severe Abdominal Pain/Discomfort No: % of subjects [1, 10]: 74%
Severe Abdominal Pain/Discomfort No: number of subjects [1, 10]: 80
Severe Abdominal Pain/Discomfort Yes: % of subjects [1, 10]: 26%
Severe Abdominal Pain/Discomfort Yes: number of subjects [1, 10]: 28
Clinical Success No: % of subjects [1, 11]: 43%
Clinical Success No: number of subjects [1, 11]: 50
Clinical Success Yes: % of subjects [1, 11]: 57%
Clinical Success Yes: number of subjects [1, 11]: 67
Global Cure of Diarrhea Yes: % of subjects [1, 12]: 71%
Global Cure of Diarrhea Yes: number of subjects [1, 12]: 83
Adjusted mean number of unformed stools-ANOVA ([1]; during the treatment period, Rifaximin N = 117, Vancomycin N = 115): 2.36
Diarrhea: % of subjects [1, 13]: 23%
Diarrhea: number of subjects [1, 13]: 16
No Diarrhea: % of subjects [1, 13]: 77%
No Diarrhea: number of subjects [1, 13]: 53
Diarrhea: Treatment Difference ([1]; subgroup Age <65, at TOC, Rifaximin vs Vancomycin): −3.8%
Diarrhea: % of subjects [1, 14]: 15%
Diarrhea: number of subjects [1, 14]: 6
No Diarrhea: % of subjects [1, 14]: 85%
No Diarrhea: number of subjects [1, 14]: 33
Diarrhea: Treatment Difference ([1]; subgroup Age >=65, at TOC, Rifaximin vs Vancomycin): 3.0%
Diarrhea: % of subjects [1, 15]: 21%
Diarrhea: number of subjects [1, 15]: 14
No Diarrhea: % of subjects [1, 15]: 79%
No Diarrhea: number of subjects [1, 15]: 54
Diarrhea: Treatment Difference ([1]; subgroup Female, at TOC, Rifaximin vs Vancomycin): −3.4%
Diarrhea: % of subjects [1, 16]: 20%
Diarrhea: number of subjects [1, 16]: 8
No Diarrhea: % of subjects [1, 16]: 80%
No Diarrhea: number of subjects [1, 16]: 32
Diarrhea: Treatment Difference ([1]; subgroup Male, at TOC, Rifaximin vs Vancomycin): 1.3%
Inhibition of cytochrome P450 1A2 (cytochrome P450 1A2): does not inhibit
Inhibition of CYP3A4 (CYP3A4): does not inhibit
Most common adverse reactions in IBS-D (≥2%) (IBS-D; 550 mg TID): nausea and abdominal pain
Adverse reaction Abdominal Pain: % of Patients (IBS-D; [17]): 2%
Adverse reaction Abdominal Pain: Number of Patients (IBS-D; [17]): 18
Adverse reaction Nausea: % of Patients (IBS-D; [17]): 2%
Adverse reaction Nausea: Number of Patients (IBS-D; [17]): 22
